Values of other authors in patent EP2537519A1, “NEUROPATHIC PAIN ALLEVIATING AGENT” (HBC Science Laboratory Co., Ltd, priority 2010, dated 2011).

Biological target: Cav3.2 (Homo sapiens, UniProt O95180)
Conditions: reported by Nelson et al., J Neurosci 2007

Sequence of Cav3.2 (O95180 whole entry): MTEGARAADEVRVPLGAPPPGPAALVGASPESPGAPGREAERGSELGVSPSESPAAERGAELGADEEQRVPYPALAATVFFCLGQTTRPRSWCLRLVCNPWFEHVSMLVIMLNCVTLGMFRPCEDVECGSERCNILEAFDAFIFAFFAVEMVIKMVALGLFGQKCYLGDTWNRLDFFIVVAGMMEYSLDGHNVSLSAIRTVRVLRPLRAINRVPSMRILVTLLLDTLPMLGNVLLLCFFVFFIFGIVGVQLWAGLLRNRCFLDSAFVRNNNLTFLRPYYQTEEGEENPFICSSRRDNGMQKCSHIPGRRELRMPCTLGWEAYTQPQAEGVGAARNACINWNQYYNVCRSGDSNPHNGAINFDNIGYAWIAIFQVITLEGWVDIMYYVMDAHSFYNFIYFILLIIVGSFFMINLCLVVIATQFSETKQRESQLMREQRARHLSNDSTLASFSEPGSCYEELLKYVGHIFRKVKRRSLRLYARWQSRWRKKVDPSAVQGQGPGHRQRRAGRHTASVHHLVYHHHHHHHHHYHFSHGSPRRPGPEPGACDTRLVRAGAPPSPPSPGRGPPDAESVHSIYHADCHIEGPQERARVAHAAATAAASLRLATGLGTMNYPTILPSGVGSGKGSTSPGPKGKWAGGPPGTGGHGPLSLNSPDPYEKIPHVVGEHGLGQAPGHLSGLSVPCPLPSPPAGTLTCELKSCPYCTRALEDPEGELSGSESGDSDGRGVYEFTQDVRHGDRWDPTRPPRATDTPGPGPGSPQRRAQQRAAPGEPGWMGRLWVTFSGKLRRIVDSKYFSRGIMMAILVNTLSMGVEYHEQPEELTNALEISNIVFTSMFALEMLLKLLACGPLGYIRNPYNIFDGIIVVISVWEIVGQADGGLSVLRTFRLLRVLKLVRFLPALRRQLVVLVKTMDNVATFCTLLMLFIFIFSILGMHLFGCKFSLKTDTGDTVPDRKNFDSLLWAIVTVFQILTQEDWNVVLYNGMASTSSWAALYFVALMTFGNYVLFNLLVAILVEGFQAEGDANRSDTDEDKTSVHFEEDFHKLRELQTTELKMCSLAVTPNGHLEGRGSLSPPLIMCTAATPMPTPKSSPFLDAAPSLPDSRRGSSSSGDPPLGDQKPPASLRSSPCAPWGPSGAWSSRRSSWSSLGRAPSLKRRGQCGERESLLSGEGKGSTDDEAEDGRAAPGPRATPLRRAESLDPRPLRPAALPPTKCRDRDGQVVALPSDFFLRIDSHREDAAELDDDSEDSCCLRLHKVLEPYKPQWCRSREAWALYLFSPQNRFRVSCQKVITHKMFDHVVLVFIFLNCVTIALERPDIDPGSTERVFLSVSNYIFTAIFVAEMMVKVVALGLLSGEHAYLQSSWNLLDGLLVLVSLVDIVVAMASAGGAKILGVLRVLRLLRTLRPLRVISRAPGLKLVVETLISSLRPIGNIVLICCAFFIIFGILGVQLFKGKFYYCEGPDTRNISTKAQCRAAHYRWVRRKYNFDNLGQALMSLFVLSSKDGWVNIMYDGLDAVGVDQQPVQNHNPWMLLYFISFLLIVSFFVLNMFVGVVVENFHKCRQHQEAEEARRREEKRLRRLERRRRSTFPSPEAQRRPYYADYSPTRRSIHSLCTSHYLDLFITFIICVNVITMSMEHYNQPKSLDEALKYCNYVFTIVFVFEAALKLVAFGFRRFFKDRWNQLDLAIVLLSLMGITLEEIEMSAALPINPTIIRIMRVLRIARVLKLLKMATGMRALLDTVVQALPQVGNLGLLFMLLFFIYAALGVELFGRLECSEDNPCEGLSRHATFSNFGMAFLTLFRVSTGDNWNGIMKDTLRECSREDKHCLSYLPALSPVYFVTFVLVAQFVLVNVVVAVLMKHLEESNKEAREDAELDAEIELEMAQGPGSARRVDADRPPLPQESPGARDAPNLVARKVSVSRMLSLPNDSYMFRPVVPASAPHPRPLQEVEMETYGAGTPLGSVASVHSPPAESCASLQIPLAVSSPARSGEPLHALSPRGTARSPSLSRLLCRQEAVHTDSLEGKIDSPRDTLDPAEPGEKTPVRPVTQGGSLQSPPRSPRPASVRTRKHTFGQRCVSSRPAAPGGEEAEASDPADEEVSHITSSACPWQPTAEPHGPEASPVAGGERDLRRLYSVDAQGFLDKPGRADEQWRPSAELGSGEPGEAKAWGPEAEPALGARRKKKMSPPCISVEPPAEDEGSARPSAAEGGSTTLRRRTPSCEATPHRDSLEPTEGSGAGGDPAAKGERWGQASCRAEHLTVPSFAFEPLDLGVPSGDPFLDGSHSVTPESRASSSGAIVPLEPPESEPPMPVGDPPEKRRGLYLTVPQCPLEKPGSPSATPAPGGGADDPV

inhibition of Cav3.2 among T-type Ca2+ channels: specifically inhibits
SMILES: O=C1O[C@H]([C@@H](O)CO)C(O)=C1O [ascorbic acid]
